# Measurements taken from patent US20240383871A1, “COMPOUND USEFUL FOR PET-IMAGING OF BRUTON’S TYROSINE KINASE” (Bristol-Myers Squibb Company, priority 2021, published 2024).
# Experiment: In-vivo PET imaging in rhesus monkey to determine brain penetrance
# Conditions: healthy rhesus monkey
# Description: The non-human primate was kept immobilized in the extended imaging bed inside the gantry of the PET imaging system (MicroPET® P4, Siemens Preclinical Solutions, Knoxville, TN). The scanning region was a single bed position from approximately the top of skull and extending through the lower neck area, to fit into the 7.6 cm MicroPET system axial FOV. A 10-minute transmission scan was acquired using a ^57Co point source for the purpose of attenuation correction of the subsequent emission image. Approximately 0.96 mCi of [^11C]-(R)-4-(2-acryloyl-1,2,3,4-tetrahydroisoquinolin-5-yl)-5-fluoro-2,3-dimethyl-1H-indole-7-carboxamide was injected IV and a 60-minute dynamic PET image was acquired. PET images were reconstructed with a filtered back projection (FBP) or MAP algorithm with attenuation correction. Using the AMIDE software package, an ROI encompassing the whole brain was manually drawn in the PET images. Mean standardized uptake value (SUV), which is normalized with body weight (kg) and injected dose (mCi), was calculated and plotted as a function of time to obtain a TAC. […] In healthy rhesus monkey, as in WT mice. there is very low brain expression of BTK in a non-diseased state.
smiles,measurement,setting,value
"C=C[11C](=O)N1CCc2c(cccc2-c2c(F)cc(C(N)=O)c3[nH]c(C)c(C)c23)C1 [[^11C]-(R)-4-(2-acryloyl-1,2,3,4-tetrahydroisoquinolin-5-yl)-5-fluoro-2,3-dimethyl-1H-indole-7-carboxamide]",brain time-activity curve (TAC) behaviour,,rapid brain penetration followed by washout
same,brain penetrance,"baseline (PET ligand only), IV, 0-60 minutes",confirmed brain penetrance
same,brain uptake pattern,summed images 0-60 minutes post injection (FIG. 7),Diffuse uptake was observed throughout the brain
